Measured values published in patent publication US7319000B1, “Compositions and methods for eliciting immune or anti-infective responses” (priority 1992, dated 2008).
Like-named read-outs stand apart in the source and are kept apart here. Ends that are not written are not given here.

Assays:
[1] = test system: spleen cells (CTL response to R15K); assay: CTL activity of spleen cells after a single id footpad injection (FIG. 4)
[2] = test system: HIV-1 IIIB infection of human cells; type: cell-based
[3] = test system: HIV-1 infection of primary human T cells; assay: HIV-1 infection of primary human T cells, reverse transcriptase assay; type: cell-based; details: peptide at 1 μg/ml; IIIB strain; RT activity after 9 days; FIG. 8
[4] = test system: PLN cells from B6C3F1 mice; assay: In vitro proliferation (3H-TdR) of PLN cells from immunized B6C3 F1 mice; type: in vivo; parameters: key to In Vitro Proliferation of PLN Cells from B6C3F1, Analogous Peptide / In Vitro Proliferation of PLN Cells from B6C3F1, GP 160: −: cpm values are corrected and categorized according to unrelated antigen response in vitro.; •: Not determined.; +: cpm values are corrected and categorized according to unrelated antigen response in vitro.; ++: cpm values are corrected and categorized according to unrelated antigen response in vitro.; +++: cpm values are corrected and categorized according to unrelated antigen response in vitro.; ++++: cpm values are corrected and categorized according to unrelated antigen response in vitro; details: for T cell response against the corresponding peptide and native HIV envelope protein gp160 (in words): disulfide (di-Cys) polymeric form; for In Vitro Proliferation of PLN Cells from B6C3F1, GP 160: in vitro antigen: GP 160; for In Vitro Proliferation of PLN Cells from B6C3F1, Analogous Peptide: in vitro antigen: analogous peptide
BALB/c mice = assay: Anti-peptide antibody response (ELISA) in BALB/c mice immunized with peptide multimers; type: in vivo; parameters: key to Antipeptide Antibody Reactivity to Analogous Peptide: −: cpm values are corrected and categorized according to unrelated antigen response in vitro.; •: Not determined.; +: cpm values are corrected and categorized according to unrelated antigen response in vitro.; ++: cpm values are corrected and categorized according to unrelated antigen response in vitro.; +++: cpm values are corrected and categorized according to unrelated antigen response in vitro.; ++++: cpm values are corrected and categorized according to unrelated antigen response in vitro; details: for Antipeptide Antibody Reactivity to Analogous Peptide: antibody raised in Balb/C mice, ELISA end point; for anti-peptide antibody production (in words): disulfide (di-Cys) polymeric form; for anti-peptide antibody response (in words): high molecular weight forms of the peptides
[5] = test system: PBMCs of immunized rhesus monkeys; assay: PBMC proliferation in rhesus monkeys immunized with a mixture of eight synthetic peptides; type: in vivo; parameters: key to T-cell Proliferation Responses: —: no detectable response; 1+: poor response; 2+: good response; 3+: better response; 4+: best response; 6+: best response; details: for T-cell Proliferation Responses: PBMC response to the individual peptide or gp160; for PBMC proliferative responses (in words): three rhesus monkeys, monitored for 32 weeks
Description: In the present studies, three rhesus monkeys (#7, #23 and #283C) were immunized subcutaneously with 1 ml (0.1 ml/site) of a mixture of eight synthetic peptides (300·g of each peptide in sterile water) emulsified in complete Freund's adjuvant at 1:1 ratio. […] At 3 and 7 weeks after the primary immunization, two booster injections of the peptide mixture (150·g of each peptide in sterile water) emulsified in incomplete Freund's adjuvant were given to each monkey. Monkey #7 was terminated after […], for health reasons unrelated to the study, while the remaining two monkeys (#283C and #23) received one additional booster injection at 25 weeks.
At two week intervals following the first immunization of each animal, 15 ml of whole heparinized blood was collected by venous puncture. The peripheral blood mononuclear cells (PBMC) were separated by standard ficoll-hypaque centrifugation and employed in proliferation assays. The PBMCs were monitored every two weeks for a period of 32 weeks for proliferative responses against individual peptides and recombinant gp160.

[6] = test system: PLN cells from A SW × Balb/c F1 mice; assay: In vitro proliferation (3H-TdR) of PLN cells from immunized A.SW x BALB/c F1 mice; type: in vivo, A.SWXBALB/C F1 mice; parameters: key: −: cpm values are corrected and categorized according to unrelated antigen response in vitro.; •: Not determined.; +: cpm values are corrected and categorized according to unrelated antigen response in vitro.; ++: cpm values are corrected and categorized according to unrelated antigen response in vitro.; +++: cpm values are corrected and categorized according to unrelated antigen response in vitro.; ++++: cpm values are corrected and categorized according to unrelated antigen response in vitro; details: for In Vitro Proliferation of PLN Cells from A SW × Balb/c F1, GP 160: in vitro antigen: GP 160; for In Vitro Proliferation of PLN Cells from A SW × Balb/c F1, Analogous Peptide: in vitro antigen: analogous peptide
3A9 target cells (H-2k) = type: in vivo, Balb/c mice; details: effector cells: No Treatment

CC[C@H](C)[C@H](NC(=O)[C@@H](NC(=O)[C@@H](NC(=O)[C@H](Cc1ccccc1)NC(=O)[C@H](C)NC(=O)[C@H](CCCNC(=N)N)NC(=O)CNC(=O)[C@@H]1CCCN1C(=O)CNC(=O)[C@H](CCCNC(=N)N)NC(=O)[C@H](CCC(N)=O)NC(=O)[C@@H](NC(=O)[C@@H](N)CCCNC(=N)N)[C@@H](C)CC)C(C)C)[C@@H](C)O)C(=O)NCC(=O)N[C@@H](CCCCN)C(=O)O [Peptide R15K]
effect of anti-CD4 MAbs plus complement, or complement alone, on CTL cytotoxicity (P815 target cells (H-2d); effectors from mice immunized with monomeric peptide, FIG. 3A): no significant effect | effect of anti-CD8 MAbs and rabbit complement on CTL cytotoxicity (P815 target cells (H-2d); effectors from mice immunized with monomeric peptide, peptide treated or env expressing targets, FIG. 3A): abolished the cytotoxicity

CRIKQIINMWQGVGKAMYA [Peptide C19A]
CTL-inducing activity of helper T-cell peptide injected alone [1]: lacked CTL-inducing activity

GIAIGPGRTLYAREK [Peptide D27, V3 loop peptide, strain NY-5]
% RT INHIBITION [2]: 0%

GIHFGPGQALYTTGI [Peptide D33, V3 loop peptide, strain MAL]
% RT INHIBITION [2]: 0%

HGEFAPGNYPALWSYA [Peptide B105]
in vivo CTL response against unmodified free synthetic peptide (P815 target cells (H-2d); same immunization protocol as Example 5): successfully generated

NNTRKSITKGPGRVIYATGQIIGD [Peptide D26, V3 loop peptide, strain RF]
% RT INHIBITION [2]: 72.2%

RAFVTIGK [Peptide R8K]
inhibition of HIV-1 infection of primary human T cells [3]: 66%

RIHIGPGARFLTTKN [Peptide D39, V3 loop peptide, strain MN(Y-L)]
% RT INHIBITION [2]: 73.8%

RIHIGPGRAFFTTKN [Peptide D40, V3 loop peptide, strain MN(Y-F)]
% RT INHIBITION [2]: 62.8%

RIHIGPGRAFYTTKN [Peptide D24, V3 loop peptide, strain MN]
% RT INHIBITION [2]: 22.1%

RTPTGLGQSLYTTRS [Peptide D38, V3 loop peptide, strain ELI]
% RT INHIBITION [2]: 33.7%

RVTLGPGRVWYTTGE [Peptide D29, V3 loop peptide, strain CDC4]
% RT INHIBITION [2]: 0%

SIHIGPGRAFYATGD [Peptide D30, V3 loop peptide, strain SC]
% RT INHIBITION [2]: 54.3%

SIRIGPGKVFTAKGG [Peptide D31, V3 loop peptide, strain Z3]
% RT INHIBITION [2]: 0%

SISIGPGRAFFATTD [Peptide D34, V3 loop peptide, strain Z321]
% RT INHIBITION [2]: 0%

SITKGPGRVIYATGQ [Peptide D28, V3 loop peptide, strain RF]
% RT INHIBITION [2]: 0%

SIYIGPGRAFHTTGR [Peptide D32, V3 loop peptide, strain SF2]
% RT INHIBITION [2]: 0%

SLSIGPGRAPRTREI [Peptide D25, V3 loop peptide, strain WMJ-3]
% RT INHIBITION [2]: 42.4%

STPIGLGQALYTTRG [Peptide D35, V3 loop peptide, strain Z6]
% RT INHIBITION [2]: 30.3%

STPIGLGQALYTTRI [Peptide D37, V3 loop peptide, strain JY1]
% RT INHIBITION [2]: 0%

SVITQACSKVSFE [Peptide 113]
T cell response against the corresponding peptide and native HIV envelope protein gp160 (in words) [4]: strong T cell response | In Vitro Proliferation of PLN Cells from B6C3F1, GP 160 [4]: + | In Vitro Proliferation of PLN Cells from B6C3F1, Analogous Peptide [4]: ++ | Antipeptide Antibody Reactivity to Analogous Peptide (BALB/c mice): − | anti-peptide antibody production (in words) (BALB/c mice): do not stimulate anti-peptide antibody production | anti-peptide antibody response (in words) (BALB/c mice): very low to negligible amounts of anti-peptide antibodies | T-cell Proliferation Responses ([5]; Rhesus Monkey #7): 1+ | T-cell Proliferation Responses ([5]; Rhesus Monkey #23): 2+ | T-cell Proliferation Responses ([5]; Rhesus Monkey #283C): 2+ | PBMC proliferative responses (in words) [5]: weak responses | In Vitro Proliferation of PLN Cells from A SW × Balb/c F1, GP 160 [6]: + | In Vitro Proliferation of PLN Cells from A SW × Balb/c F1, Analogous Peptide [6]: ++

TYQRTRALVTG [Peptide B106, free synthetic peptide from Influenza virus nucleoprotein (aa 147-158)]
% Specific Lysis (3A9 target cells (H-2k); target 3A9 (MHC-mis-matched, H-2k), E:T 80:1): 0% | % Specific Lysis (3A9 target cells (H-2k); target 3A9 (MHC-mis-matched, H-2k), E:T 160:1): 0% | % Specific Lysis (3A9 target cells (H-2k); target 3A9 + B106, E:T 20:1): 0% | % Specific Lysis (3A9 target cells (H-2k); target 3A9 + B106, E:T 40:1): 0% | % Specific Lysis (3A9 target cells (H-2k); target 3A9 + B106, E:T 80:1): 0% | % Specific Lysis (3A9 target cells (H-2k); target 3A9 + B106, E:T 160:1): 0%

VYYGVPVWKEA [Peptide 104]
In Vitro Proliferation of PLN Cells from B6C3F1, GP 160 [4]: ++ | In Vitro Proliferation of PLN Cells from B6C3F1, Analogous Peptide [4]: ++++ | Antipeptide Antibody Reactivity to Analogous Peptide (BALB/c mice): • | anti-peptide antibody response (in words) (BALB/c mice): very low to negligible amounts of anti-peptide antibodies | T-cell Proliferation Responses ([5]; Rhesus Monkey #7): 4+ | T-cell Proliferation Responses ([5]; Rhesus Monkey #23): 2+ | T-cell Proliferation Responses ([5]; Rhesus Monkey #283C): 4+ | PBMC proliferative responses (in words) [5]: good proliferative responses | In Vitro Proliferation of PLN Cells from A SW × Balb/c F1, GP 160 [6]: + | In Vitro Proliferation of PLN Cells from A SW × Balb/c F1, Analogous Peptide [6]: +++

YLRDQQLLGIWGC [Peptide 61, gp160 aa 586-598]
T cell response against the corresponding peptide and native HIV envelope protein gp160 (in words) [4]: strong T cell response | In Vitro Proliferation of PLN Cells from B6C3F1, GP 160 [4]: + | In Vitro Proliferation of PLN Cells from B6C3F1, Analogous Peptide [4]: ++ | Antipeptide Antibody Reactivity to Analogous Peptide (BALB/c mice): − | anti-peptide antibody production (in words) (BALB/c mice): do not stimulate anti-peptide antibody production | anti-peptide antibody response (in words) (BALB/c mice): very low to negligible amounts of anti-peptide antibodies | T-cell Proliferation Responses ([5]; Rhesus Monkey #7): — | T-cell Proliferation Responses ([5]; Rhesus Monkey #23): 3+ | T-cell Proliferation Responses ([5]; Rhesus Monkey #283C): 2+ | PBMC proliferative responses (in words) [5]: Two of the three rhesus monkey-derived PBMC preparations also showed good proliferative responses | In Vitro Proliferation of PLN Cells from A SW × Balb/c F1, GP 160 [6]: ++ | In Vitro Proliferation of PLN Cells from A SW × Balb/c F1, Analogous Peptide [6]: ++

YNKRKRIHIGPGRAFYTTKNNIGC [Peptide D23, V3 loop peptide, strain MN]
% RT INHIBITION [2]: 98.8%
